Measured values published in patent US5004747A, “Isoquinolinones” (May & Baker Limited, priority 1988, dated 1991).

Target: T1, rat hepatic microsomal HMG CoA reductase (Rattus norvegicus, UniProt P51639)
T1 construct: rat hepatic microsomal HMG CoA reductase; from tissue; host or cells: rat liver microsomes
T1 sequence (P51639 1-887): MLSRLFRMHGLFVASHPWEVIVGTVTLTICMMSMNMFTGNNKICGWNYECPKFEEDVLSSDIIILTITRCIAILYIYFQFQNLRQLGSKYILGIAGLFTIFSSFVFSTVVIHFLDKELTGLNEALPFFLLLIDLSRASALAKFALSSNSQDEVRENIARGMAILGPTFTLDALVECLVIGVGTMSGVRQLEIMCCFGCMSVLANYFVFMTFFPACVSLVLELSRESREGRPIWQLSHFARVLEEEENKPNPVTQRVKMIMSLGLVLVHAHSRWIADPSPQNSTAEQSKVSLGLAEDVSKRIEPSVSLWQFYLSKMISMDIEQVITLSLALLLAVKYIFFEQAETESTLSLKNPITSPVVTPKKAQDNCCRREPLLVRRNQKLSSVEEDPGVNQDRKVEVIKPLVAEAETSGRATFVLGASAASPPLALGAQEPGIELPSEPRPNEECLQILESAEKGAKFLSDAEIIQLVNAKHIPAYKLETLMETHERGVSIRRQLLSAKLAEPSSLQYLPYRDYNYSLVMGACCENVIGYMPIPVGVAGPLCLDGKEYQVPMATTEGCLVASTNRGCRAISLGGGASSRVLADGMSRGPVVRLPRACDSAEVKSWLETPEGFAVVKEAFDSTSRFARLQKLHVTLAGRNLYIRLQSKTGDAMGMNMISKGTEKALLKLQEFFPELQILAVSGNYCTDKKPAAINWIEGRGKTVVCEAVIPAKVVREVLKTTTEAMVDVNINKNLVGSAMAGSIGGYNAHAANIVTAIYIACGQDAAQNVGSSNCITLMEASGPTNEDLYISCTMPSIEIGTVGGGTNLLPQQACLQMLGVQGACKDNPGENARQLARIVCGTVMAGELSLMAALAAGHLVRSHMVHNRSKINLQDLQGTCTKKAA
Experiment: inhibition of rat hepatic microsomal HMG CoA reductase activity in vitro (Table I)
Format: biochemical
Conditions: for inhibition at 0.082 µg/mL: 0.082 micrograms/ml; for inhibition at 0.25 µg/mL: 0.25 micrograms/ml; for inhibition at 0.74 µg/mL: 0.74 micrograms/ml; for inhibition at 2.22 µg/mL: 2.22 micrograms/ml; for inhibition at 6.66 µg/mL: 6.66 micrograms/ml; for inhibition at 20 µg/mL: 20.0 micrograms/ml; for inhibition at 0.0274 µg/mL: 0.0274 micrograms/ml
Description: In the table the concentrations of the test compounds are expressed in micrograms/ml.

Structure (SMILES)	inhibition at 0.082 µg/mL	inhibition at 0.25 µg/mL	inhibition at 0.74 µg/mL	inhibition at 2.22 µg/mL	inhibition at 6.66 µg/mL	inhibition at 20 µg/mL	inhibition at 0.0274 µg/mL	inhibition at 0.24 µg/mL (0.24 micrograms/ml)
CC(C)c1c(/C=C/[C@@H]2C[C@@H](O)CC(O)O2)n(-c2ccc(F)cc2)c(=O)c2ccccc12 (mixture of isomers) [Compound M, (2RS,4R,6S)-(E)-2,4-dihydroxy-6-[2-(2-(4-fluorophenyl)-4-isopropyl-1-oxo-1,2-dihydroisoquinolin-3-yl)ethen-1-yl]-3,4,5,6-tetrahydro-2H-pyran]	27%	18%	31%	44%	56%	72%		
CC(C)n1c(/C=C/[C@@H](O)C[C@@H](O)CC(=O)O)c(-c2ccc(F)cc2)c2ccccc2c1=O [AF, sodium (3R,5S)-(E)-3,5-dihydroxy-7-(4-(4-fluorophenyl)-2-isopropyl-1-oxo-1,2-dihydroisoquinolin-3-yl)hept-6-enoate]	38%	65%	83%	93%	95%		15%	
CC(C)n1c(CC[C@@H]2C[C@@H](O)CC(=O)O2)c(-c2ccc(F)cc2)c2ccccc2c1=O [AI, (4R,6R)-6-(2-(4-(4-fluorophenyl)-2-isopropyl-1-oxo-1,2-dihydroisoquinolin-3-yl)ethyl)-4-hydroxy-3,4,5,6-tetrahydro-2H-pyran-2-one]	16%	38%	62%	81%	92%			
CC(C)c1c(CC[C@@H]2C[C@@H](O)CC(=O)O2)n(-c2ccc(F)cc2)c(=O)c2ccccc12 [AH, (4R,6R)-6-[2-{2-(4-fluorophenyl)-4-isopropyl-1-oxo-1,2-dihydroisoquinolin-3-yl}ethyl]-4-hydroxy-3,4,5,6-tetrahydro-2H-pyran-2-one]	33%	31%	47%	61%	79%	91%		
COC(=O)C[C@H](O)C[C@H](O)/C=C/c1c(-c2ccc(F)cc2)c2ccccc2c(=O)n1C(C)C [Compound J, methyl (3R,5S)-(E)-3,5-dihydroxy-7-[4-(4-fluorophenyl)-2-isopropyl-1-oxo-1,2-dihydroisoquinolin-3-yl]hept-6-enoate]	28%	55%	79%	92%			13%	
CCOC(=O)CC(O)CC(O)/C=C/c1c(-c2ccc(F)cc2)c2ccccc2c(=O)n1C(C)C (stereo not drawn) [Compound D, ethyl (E)-3,5-dihydroxy-7-[4-(4-fluorophenyl)-2-isopropyl-1-oxo-1,2-dihydroisoquinolin-3-yl]hept-6-enoate]			35%	62%	85%	94%		11%
Cc1c(/C=C/[C@@H]2C[C@@H](O)CC(=O)O2)n(-c2ccc(F)cc2)c(=O)c2ccccc12 [V, (4R,6S)-(E)-6-(2-(2-(4-fluorophenyl)-4-methyl-1-oxo-1,2-dihydroisoquinolin-3-yl)ethen-1-yl)-4-hydroxy-3,4,5,6-tetrahydro-2H-pyran-2-one]			10%	40%	67%	85%		

Second part, the molecule after the results:

inhibition at 0.082 µg/mL	inhibition at 0.25 µg/mL	inhibition at 0.74 µg/mL	inhibition at 2.22 µg/mL	inhibition at 6.66 µg/mL	inhibition at 20 µg/mL	inhibition at 0.0274 µg/mL	inhibition at 0.24 µg/mL (0.24 micrograms/ml)	Structure (SMILES)
21%	35%	56%	78%	91%	97%			CC(C)c1c(/C=C/[C@@H]2C[C@@H](O)CC(=O)O2)n(-c2ccc(Cl)cc2)c(=O)c2ccccc12 [R, (4R,6S)-(E)-6-(2-(2-(4-chlorophenyl)-4-isopropyl-1-oxo-1,2-dihydroisoquinolin-3-yl)ethen-1-yl)-4-hydroxy-3,4,5,6-tetrahydro-2H-pyran-2-one]
14%	29%	58%	81%	93%	97%			CC(C)n1c(/C=C/C2CC(O)CC(=O)O2)c(-c2ccc(F)cc2)c2ccccc2c1=O (stereo not drawn) [Compound G, (E)-4-hydroxy-6-[2-{4-(4-fluorophenyl)-2-isopropyl-1-oxo-1,2-dihydroisoquinolin-3-yl}ethenyl]-3,4,5,6-tetrahydro-2H-pyran-2-one]
		20%	41%	66%				CC(C)c1c(/C=C/[C@@H]2C[C@@H](O)CC(=O)O2)n(CC2CCCCC2)c(=O)c2ccccc12 [AB, (4R,6S)-(E)-6-(2-(2-cyclohexylmethyl-4-isopropyl-1-oxo-1,2-dihydroisoquinolin-3-yl)ethen-1-yl)-4-hydroxy-3,4,5,6-tetrahydro-2H-pyran-2-one]
48%	72%	88%	96%			25%		CC(C)c1c(/C=C/[C@@H]2C[C@@H](O)CC(=O)O2)n(-c2ccc(F)cc2)c(=O)c2ccccc12 [Compound I, (4R,6S)-(E)-4-hydroxy-6-[2-{2-(4-fluorophenyl)-4-isopropyl-1-oxo-1,2-dihydroisoquinolin-3-yl}ethen-1-yl]-3,4,5,6-tetrahydro-2H-pyran-2-one]
27%	39%	63%	81%	90%	90%			Cc1cc(-n2c(/C=C/[C@@H]3C[C@@H](O)CC(=O)O3)c(C(C)C)c3ccccc3c2=O)ccc1F [P, (4R,6S)-(E)-6-(2-(2-(4-fluoro-3-methylphenyl)-4-isopropyl-1-oxo-1,2-dihydroisoquinolin-3-yl)ethen-1-yl)-4-hydroxy-3,4,5,6-tetrahydro-2H-pyran-2-one]
